Results taken from ChEMBL document CHEMBL5126590 (Bioorg Med Chem, 2022).
Calls of active or inactive are those of the source. No cut-off for these calls is given here.

Key:
[1] = target: T1, Interstitial collagenase (Homo sapiens) (UniProt P03956); experiment: Inhibition of MMP-1 (unknown origin) using FRET substrate preincubated for 5 mins followed by substrate addition and measured after 30 mins by fluorescence assay; details: dose 25-100 µM, time 35.0 min, DDE = dose-dependent effect
T1 sequence (whole entry): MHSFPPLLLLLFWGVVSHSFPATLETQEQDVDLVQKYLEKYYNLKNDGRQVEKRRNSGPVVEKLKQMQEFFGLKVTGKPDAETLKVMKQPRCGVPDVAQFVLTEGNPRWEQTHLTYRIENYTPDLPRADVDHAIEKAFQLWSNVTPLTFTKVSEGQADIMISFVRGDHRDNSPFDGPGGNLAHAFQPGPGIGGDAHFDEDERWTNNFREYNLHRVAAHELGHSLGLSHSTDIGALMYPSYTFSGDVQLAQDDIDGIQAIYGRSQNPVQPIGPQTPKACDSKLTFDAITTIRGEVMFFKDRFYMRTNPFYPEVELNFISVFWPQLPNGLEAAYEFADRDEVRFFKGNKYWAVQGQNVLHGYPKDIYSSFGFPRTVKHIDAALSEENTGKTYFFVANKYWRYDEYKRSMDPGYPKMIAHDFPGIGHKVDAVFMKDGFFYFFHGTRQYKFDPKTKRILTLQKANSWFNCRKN

[2] = target: T1, Interstitial collagenase (Homo sapiens); experiment: (§1) Binding affinity to human MMP-1 catalytic domain (100 to 269 residues) expressed in Escherichia coli BL21 Star (DE3) by SPR analysis; details: DDE = dose-dependent effect
[3] = target: T2, Interstitial collagenase (Homo sapiens, UniProt P03956); experiment: as §1
T2 sequence (P03956 whole entry): T1 sequence (whole entry)

[4] = target: T1, Interstitial collagenase (Homo sapiens); experiment: Binding affinity to human 15N-labelled MMP-1 catalytic domain (100 to 269 residues) expressed in Escherichia coli BL21 Star (DE3) assessed as chemical shift perturbation at F97 residue at 500 uM by 1H-15N HSQC spectra analysis
[5] = target: T1, Interstitial collagenase (Homo sapiens); experiment: Binding affinity to human 15N-labelled MMP-1 catalytic domain (100 to 269 residues) expressed in Escherichia coli BL21 Star (DE3) assessed as chemical shift perturbation at E99 residue at 500 uM by 1H-15N HSQC spectra analysis
[6] = system: B16-F10; experiment: Binding affinity to MMP-1 in mouse B16-F10 cell lysate by pull down assay; type: subcellular
[7] = target: Actin, cytoplasmic 1 (Mus musculus) (UniProt P60710); experiment: Binding affinity to beta-actin in mouse B16-F10 cell lysate by pull down assay; type: subcellular
[8] = target: Heat shock cognate 71 kDa protein (Mus musculus) (UniProt P63017); experiment: Binding affinity to HSP73 in mouse B16-F10 cell lysate by pull down assay; type: subcellular
[9] = target: Mitogen-activated protein kinase kinase kinase 11 (Mus musculus) (UniProt Q80XI6); experiment: Binding affinity to MLK3 in mouse B16-F10 cell lysate by pull down assay; type: subcellular
[10] = system: B16-F10; experiment: Binding affinity to MMP-1 in mouse B16-F10 cell lysate by Western blot analysis; type: subcellular
[11] = target: Actin, cytoplasmic 1 (Mus musculus) (UniProt P60710); experiment: Binding affinity to beta-actin in mouse B16-F10 cell lysate by Western blot analysis; type: subcellular
[12] = target: Heat shock cognate 71 kDa protein (Mus musculus) (UniProt P63017); experiment: Binding affinity to HSP73 in mouse B16-F10 cell lysate by Western blot analysis; type: subcellular

Heat shock cognate 71 kDa protein (Mus musculus), sequence (P63017 whole entry): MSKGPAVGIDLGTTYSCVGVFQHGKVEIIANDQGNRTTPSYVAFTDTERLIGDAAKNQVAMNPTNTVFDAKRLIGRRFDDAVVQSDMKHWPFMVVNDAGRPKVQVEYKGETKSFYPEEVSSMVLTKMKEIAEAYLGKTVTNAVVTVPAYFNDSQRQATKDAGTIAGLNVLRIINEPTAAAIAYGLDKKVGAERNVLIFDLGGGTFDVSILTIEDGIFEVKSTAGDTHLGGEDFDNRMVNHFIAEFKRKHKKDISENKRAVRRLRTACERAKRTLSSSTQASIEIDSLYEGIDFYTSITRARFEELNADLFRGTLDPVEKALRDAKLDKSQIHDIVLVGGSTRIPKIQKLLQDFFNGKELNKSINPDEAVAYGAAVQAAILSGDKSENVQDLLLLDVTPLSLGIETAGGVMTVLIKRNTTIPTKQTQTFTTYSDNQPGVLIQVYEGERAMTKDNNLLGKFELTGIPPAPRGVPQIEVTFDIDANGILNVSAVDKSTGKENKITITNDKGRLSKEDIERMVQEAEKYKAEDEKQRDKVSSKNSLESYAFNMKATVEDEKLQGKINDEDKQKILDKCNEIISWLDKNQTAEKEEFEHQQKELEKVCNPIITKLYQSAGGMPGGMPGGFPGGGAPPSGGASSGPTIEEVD
Mitogen-activated protein kinase kinase kinase 11 (Mus musculus), sequence (Q80XI6 whole entry, looked up): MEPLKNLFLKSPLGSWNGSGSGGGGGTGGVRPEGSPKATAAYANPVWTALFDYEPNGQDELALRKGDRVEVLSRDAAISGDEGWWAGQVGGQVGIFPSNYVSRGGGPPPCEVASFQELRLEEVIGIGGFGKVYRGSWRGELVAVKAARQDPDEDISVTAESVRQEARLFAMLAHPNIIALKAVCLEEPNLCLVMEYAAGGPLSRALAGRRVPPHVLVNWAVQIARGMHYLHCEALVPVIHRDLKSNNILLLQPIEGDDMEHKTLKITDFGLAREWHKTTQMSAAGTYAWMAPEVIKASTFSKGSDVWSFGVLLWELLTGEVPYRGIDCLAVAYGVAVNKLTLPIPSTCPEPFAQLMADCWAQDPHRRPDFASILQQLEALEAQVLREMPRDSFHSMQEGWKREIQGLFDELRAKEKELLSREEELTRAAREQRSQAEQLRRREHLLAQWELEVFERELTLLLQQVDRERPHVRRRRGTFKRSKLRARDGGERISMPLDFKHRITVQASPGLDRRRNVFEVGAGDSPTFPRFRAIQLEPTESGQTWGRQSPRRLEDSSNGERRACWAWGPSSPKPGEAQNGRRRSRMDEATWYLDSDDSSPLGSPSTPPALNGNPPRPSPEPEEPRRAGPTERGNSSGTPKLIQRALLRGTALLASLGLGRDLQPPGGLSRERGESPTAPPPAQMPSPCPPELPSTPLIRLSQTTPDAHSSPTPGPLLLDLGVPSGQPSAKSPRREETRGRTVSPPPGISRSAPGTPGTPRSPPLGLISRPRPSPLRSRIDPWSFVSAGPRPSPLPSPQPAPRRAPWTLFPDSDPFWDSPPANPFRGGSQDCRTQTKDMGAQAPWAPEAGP

O=c1c(O)c(-c2ccc(O)c(O)c2)oc2cc(O)cc(O)c12
inhibition [1]: Dde
Activity [2]: Dde

COc1c(-c2ccc(O)c(O)c2)oc2cc(O)cc(O)c2c1=O [3-O-METHYLQUERCETIN]
inhibition [1]: Dde
Activity [2]: Dde
Kd [3]: 21.7 µM
Activity [4]: 0.05 ppm
Activity [5]: > 0.03 ppm
Activity [6]: Active
Activity [7]: Active
Activity [8]: Active
Activity [9]: Active
Activity [10]: Active
Activity [11]: Active
Activity [12]: Active
